The record followed here is ChEMBL document CHEMBL1145121, “Docking studies on alphavbeta3 integrin ligands: pharmacophore refinement and implications for drug design” (J Med Chem, 2003).

Each structure is given as a SMILES string.

For the experiment, the target named is Integrin alpha-V/beta-3 (Homo sapiens, UniProt P05106+P06756). As to the kind of experiment: Inhibition of binding to alphaV-beta3 integrin. Format: protein-complex assay.
Sequence of Integrin alpha-V/beta-3 (P05106 27-788 limits assumed): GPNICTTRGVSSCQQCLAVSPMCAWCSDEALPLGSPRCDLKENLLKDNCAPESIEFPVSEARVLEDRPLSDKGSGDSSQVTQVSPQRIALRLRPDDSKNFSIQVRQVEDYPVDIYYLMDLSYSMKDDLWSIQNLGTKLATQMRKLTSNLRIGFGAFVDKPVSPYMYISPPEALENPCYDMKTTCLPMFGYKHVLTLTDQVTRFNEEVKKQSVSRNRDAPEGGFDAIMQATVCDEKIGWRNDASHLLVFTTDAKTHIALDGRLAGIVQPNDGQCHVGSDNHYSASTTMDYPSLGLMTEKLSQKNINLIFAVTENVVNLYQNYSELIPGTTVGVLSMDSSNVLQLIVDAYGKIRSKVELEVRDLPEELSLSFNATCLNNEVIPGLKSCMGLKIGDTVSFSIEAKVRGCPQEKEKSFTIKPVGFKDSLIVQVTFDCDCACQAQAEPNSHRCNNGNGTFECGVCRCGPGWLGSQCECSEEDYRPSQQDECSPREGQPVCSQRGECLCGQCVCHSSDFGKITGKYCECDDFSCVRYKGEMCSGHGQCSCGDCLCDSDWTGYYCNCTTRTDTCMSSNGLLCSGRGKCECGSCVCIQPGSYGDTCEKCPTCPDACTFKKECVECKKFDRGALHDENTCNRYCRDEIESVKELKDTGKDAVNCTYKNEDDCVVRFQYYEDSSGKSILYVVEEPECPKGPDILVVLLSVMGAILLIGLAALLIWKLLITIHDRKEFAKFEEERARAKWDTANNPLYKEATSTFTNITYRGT
Sequence of Integrin alpha-V/beta-3 (P06756 31-889 limits assumed): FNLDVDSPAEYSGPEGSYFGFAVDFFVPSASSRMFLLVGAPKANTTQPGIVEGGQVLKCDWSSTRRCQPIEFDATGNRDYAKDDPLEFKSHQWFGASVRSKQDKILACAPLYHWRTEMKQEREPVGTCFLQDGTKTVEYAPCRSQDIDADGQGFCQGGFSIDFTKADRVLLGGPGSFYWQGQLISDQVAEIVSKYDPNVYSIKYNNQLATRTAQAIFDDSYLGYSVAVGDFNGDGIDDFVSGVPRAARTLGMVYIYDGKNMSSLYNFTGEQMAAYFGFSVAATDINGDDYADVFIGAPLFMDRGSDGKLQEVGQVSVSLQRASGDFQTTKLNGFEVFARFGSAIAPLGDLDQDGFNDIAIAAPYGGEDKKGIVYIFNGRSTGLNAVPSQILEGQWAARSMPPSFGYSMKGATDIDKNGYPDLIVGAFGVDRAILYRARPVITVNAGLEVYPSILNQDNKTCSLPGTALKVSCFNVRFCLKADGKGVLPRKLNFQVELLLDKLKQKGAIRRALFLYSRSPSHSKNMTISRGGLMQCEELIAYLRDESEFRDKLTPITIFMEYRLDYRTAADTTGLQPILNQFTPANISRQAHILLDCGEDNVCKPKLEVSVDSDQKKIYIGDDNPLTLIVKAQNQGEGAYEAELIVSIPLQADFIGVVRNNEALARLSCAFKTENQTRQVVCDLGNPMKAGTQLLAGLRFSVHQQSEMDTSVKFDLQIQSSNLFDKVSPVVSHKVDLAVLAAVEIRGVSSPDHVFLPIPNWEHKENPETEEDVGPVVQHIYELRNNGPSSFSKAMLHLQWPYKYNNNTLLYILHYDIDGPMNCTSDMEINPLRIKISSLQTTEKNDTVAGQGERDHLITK
Sequence of Integrin alpha-V/beta-3 (P06756 891-1048 limits assumed): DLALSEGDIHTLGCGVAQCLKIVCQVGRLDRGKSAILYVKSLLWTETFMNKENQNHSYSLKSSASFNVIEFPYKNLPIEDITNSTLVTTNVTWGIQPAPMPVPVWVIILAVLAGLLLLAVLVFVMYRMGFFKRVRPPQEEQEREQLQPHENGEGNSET
The molecule `CC(C)C[C@H]1C(=O)N[C@@H](CCCNC(=N)N)C(=O)NCC(=O)N[C@@H](CC(=O)O)C(=O)N[C@@H]2CCN1C2=O` had a half-maximal inhibitory concentration (IC50) of 0.8 nM.
As for `CC(C)C[C@H]1NC(=O)[C@H](CCCN=C(N)N)NC(=O)CNC(=O)[C@@H](CC(=O)O)NC(=O)[C@@H](Cc2ccccc2)NC1=O`, the figure is 40 nM; as for `CC(C)C[C@H]1C(=O)N[C@@H](CCCN=C(N)N)C(=O)NCC(=O)N[C@@H](CC(=O)O)C(=O)N[C@H](Cc2ccccc2)C(=O)N1C`, 0.6 nM; as for `NC(=O)[C@@H](CC(=O)O)NC(=O)NNC(=O)c1cccc(N=C(N)N)c1`, 7200 nM.
As for `N=C(N)Nc1cccc(C(=O)NNC(=O)N[C@@H](CC(=O)O)C(N)=O)c1`, the figure is 150 nM; as for `N=C(N)Nc1cccc(C(=O)NNC(=O)NC(CC(=O)O)c2ccccc2)c1` (stereo unspecified), 2.6 nM.
